Experimental data published in EP4813991A1 (iLeadBMS Co., Ltd., priority 2023, dated 2025).
Like-named read-outs stand apart in the source and are kept apart here.

Columns and labels:
CDK13 = CDK13 (Homo sapiens, UniProt Q14004); test: CDK13 kinase inhibitory activity assay (33P-ATP filter binding); format: biochemical
Experimental: (§1) Before initiating the CDK12 and CDK13 kinase reactions, each Example compound was dissolved and diluted in DMSO as a solvent across 9 concentration ranges at room temperature. The diluted solutions were then incubated with a mixture of kinase and substrate (and cofactors, if required) for 20 minutes. Next, radioisotope-labeled ATP (^33P-gamma-ATP) was added to proceed with the kinase reaction at room temperature for 120 minutes. After the reaction was completed, the reaction mixture was transferred to a filter paper that binds the radioisotope-labeled catalytic product (^33P-substrate). Unreacted ^33P-ATP was removed by washing with 0.75 % phosphoric acid, and then the radioactive phosphorylated substrate remaining on the filter paper was measured. Kinase activity data were expressed as a percentage of the kinase activity remaining in the test sample compared to a DMSO control group. The half-maximal inhibitory concentration (IC50) for each kinase was calculated using Prism (Graphpad) software.

CDK12 [1] = molecular target: T1, CDK12 (Homo sapiens, UniProt Q9NYV4); test: Cellular CDK12 inhibitory activity assay (Ser2 phosphorylation of RNA polymerase II subunit B1 CTD in MDA-MB-231 cells); format: cell-based; parameters: using MDA-MB-231 breast cancer cells; endogenous in cells; host or cells: MDA-MB-231
T1 sequence (Q9NYV4 whole entry, species assumed): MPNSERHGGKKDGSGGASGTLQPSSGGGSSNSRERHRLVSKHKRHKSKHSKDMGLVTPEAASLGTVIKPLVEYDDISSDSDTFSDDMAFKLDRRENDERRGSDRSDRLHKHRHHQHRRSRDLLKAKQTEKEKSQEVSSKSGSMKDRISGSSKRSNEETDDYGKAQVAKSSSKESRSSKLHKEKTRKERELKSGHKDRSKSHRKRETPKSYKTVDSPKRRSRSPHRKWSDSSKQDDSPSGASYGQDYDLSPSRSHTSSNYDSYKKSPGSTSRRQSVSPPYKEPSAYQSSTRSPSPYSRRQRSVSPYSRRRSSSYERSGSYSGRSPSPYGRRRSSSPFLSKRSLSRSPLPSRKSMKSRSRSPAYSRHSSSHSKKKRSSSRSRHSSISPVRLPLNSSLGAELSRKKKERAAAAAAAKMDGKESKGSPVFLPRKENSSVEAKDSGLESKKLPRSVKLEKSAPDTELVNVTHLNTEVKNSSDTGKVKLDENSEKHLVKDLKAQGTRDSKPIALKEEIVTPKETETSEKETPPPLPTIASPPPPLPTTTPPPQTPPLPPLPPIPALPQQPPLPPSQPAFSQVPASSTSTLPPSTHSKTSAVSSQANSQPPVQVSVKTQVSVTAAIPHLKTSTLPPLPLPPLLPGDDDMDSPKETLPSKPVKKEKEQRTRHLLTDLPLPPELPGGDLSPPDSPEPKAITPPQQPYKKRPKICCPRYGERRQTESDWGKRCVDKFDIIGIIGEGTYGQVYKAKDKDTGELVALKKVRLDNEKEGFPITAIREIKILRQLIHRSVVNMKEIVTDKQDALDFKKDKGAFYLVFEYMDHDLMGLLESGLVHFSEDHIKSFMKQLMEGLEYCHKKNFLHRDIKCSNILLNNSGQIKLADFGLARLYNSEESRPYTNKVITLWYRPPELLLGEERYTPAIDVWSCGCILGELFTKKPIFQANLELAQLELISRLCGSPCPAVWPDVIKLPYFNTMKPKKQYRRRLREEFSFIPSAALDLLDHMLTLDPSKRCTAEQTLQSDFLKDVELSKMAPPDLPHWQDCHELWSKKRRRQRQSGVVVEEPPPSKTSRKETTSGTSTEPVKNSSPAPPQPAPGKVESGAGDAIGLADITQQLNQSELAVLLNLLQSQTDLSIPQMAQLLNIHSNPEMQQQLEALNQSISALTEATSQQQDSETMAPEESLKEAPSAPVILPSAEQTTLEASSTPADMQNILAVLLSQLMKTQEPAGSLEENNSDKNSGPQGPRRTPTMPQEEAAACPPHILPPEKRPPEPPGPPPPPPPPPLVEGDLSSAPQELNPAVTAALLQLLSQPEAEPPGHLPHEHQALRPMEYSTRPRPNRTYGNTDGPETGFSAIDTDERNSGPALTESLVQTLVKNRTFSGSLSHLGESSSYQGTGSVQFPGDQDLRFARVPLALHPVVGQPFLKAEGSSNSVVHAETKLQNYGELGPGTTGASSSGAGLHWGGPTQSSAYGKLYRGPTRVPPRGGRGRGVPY
T1 sequence (O75909 whole entry partner, species assumed): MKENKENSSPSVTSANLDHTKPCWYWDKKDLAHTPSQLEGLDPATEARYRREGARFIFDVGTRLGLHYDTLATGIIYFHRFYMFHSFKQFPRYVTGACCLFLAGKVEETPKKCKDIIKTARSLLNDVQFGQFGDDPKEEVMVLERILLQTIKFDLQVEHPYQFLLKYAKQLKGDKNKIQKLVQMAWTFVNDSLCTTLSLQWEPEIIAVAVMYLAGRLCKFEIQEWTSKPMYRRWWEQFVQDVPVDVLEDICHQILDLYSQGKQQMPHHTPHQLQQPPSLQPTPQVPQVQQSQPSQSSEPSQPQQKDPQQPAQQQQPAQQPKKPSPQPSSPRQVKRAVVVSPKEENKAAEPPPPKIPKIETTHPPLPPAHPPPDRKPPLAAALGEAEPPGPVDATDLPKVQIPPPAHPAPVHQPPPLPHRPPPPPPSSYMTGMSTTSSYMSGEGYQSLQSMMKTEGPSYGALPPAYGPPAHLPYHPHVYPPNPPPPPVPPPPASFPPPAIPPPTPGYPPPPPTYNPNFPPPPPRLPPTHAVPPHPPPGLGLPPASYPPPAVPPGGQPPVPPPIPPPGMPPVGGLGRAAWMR
Experimental: MDA-MB-231 cells were dispensed into a 96-well plate at 100 µL of cell suspension per well using L-15 (Invitrogen) medium containing 10 % FBS, followed by overnight incubation in a cell incubator at 37 °C and 0 % CO2. The next day, each Example compound dissolved in DMSO across 9 concentration ranges and a DMSO control group were treated on the MDA-MB-231 cells at 37 °C and 0 % CO2 for 6 hours. After the compound treatment, the medium in the 96-well plate was removed, and 60 µL of a fixing solution (4.0 % paraformaldehyde in PBS) was added to each well, followed by standing for 20 minutes. After removing the fixing solution and washing with PBS, 60 µL of PBS containing 0.1 % Triton X-100 was dispensed into each well, followed by shaking at room temperature for 15 minutes. After washing with PBS, 100 µL of blocking buffer was added, followed by shaking at room temperature for 1 hour. After removing the blocking buffer, primary antibodies, which are RNA polymerase II subunit B1 phospho-Ser2 (1:500, Cell signaling technology) and RNA polymerase II subunit B1 carboxy-terminal domain (1:200, Cell signaling technology), were added at 60 µL per well and reacted overnight at 4 °C. After adding 150 µL of PBS containing 0.1 % Triton X-100 and washing at least twice by shaking at room temperature for 5 minutes, 60 µL of a secondary antibody was added, followed by shaking at room temperature for 1 hour while blocking light. After adding 150 µL of PBS containing 0.1 % Triton X-100 and washing at least twice by shaking at room temperature for 5 minutes, 150 µL of PBS was added again, followed by washing at least twice by shaking at room temperature for 5 minutes. The plate was scanned using a Li-COR Odyssey machine with the wells filled with PBS. IC50 values were calculated by fitting a dose-response curve using a 4-parameter model of Prism (Graphpad) software.

[2] = system: MDA-MB-231 breast cancer cells; test: Proliferation inhibitory activity assay against MDA-MB-231 breast cancer cells; format: cell-based; conditions: Homo sapiens, 72 hours, CellTiter Glo, relative IC50
Experimental: Experiments were performed using the MDA-MB-231 breast cancer cell line to measure the cell proliferation inhibitory ability of each Example compound. MDA-MB-231 cells were dispensed into a 96-well plate at 100 µL of cell suspension per well using L-15 (Invitrogen) medium containing 10 % FBS, followed by incubation in a cell incubator at 37 °C and 0 % CO2. The next day, each Example compound dissolved and diluted in DMSO across 9 concentration ranges and a DMSO control group were treated on the cells for 72 hours. After the compound treatment was completed, 100 µL of CellTiter Glo (Promega) reagent was added to each well of the 96-well plate, followed by shaking for 10 minutes and standing at room temperature for 10 minutes. Luminescence signals were measured after inserting the 96-well plate into an Envision plate reader (PerkinElmer). Relative IC50 values were calculated by fitting a dose-response curve using XLfit (IDBS Ltd) software.
The breast cancer cell proliferation inhibitory activities of the Example compounds measured by the above method were evaluated according to the following criteria, and the results are presented in Table 13.

CDK12 [3] = molecular target: T1, CDK12; test: CDK12 kinase inhibitory activity assay (33P-ATP filter binding); format: biochemical
Experimental: as §1

[4] = kinase reaction 120 minutes, 33P-gamma-ATP, read-out: CDK13 IC50
[5] = MDA-MB-231 cells, 6 hours treatment, read-out: pRpbl CTD S2 IC50
[6] = kinase reaction 120 minutes, 33P-gamma-ATP, read-out: CDK12 IC50

Chain of CDK13 (Q14004 whole entry, species assumed): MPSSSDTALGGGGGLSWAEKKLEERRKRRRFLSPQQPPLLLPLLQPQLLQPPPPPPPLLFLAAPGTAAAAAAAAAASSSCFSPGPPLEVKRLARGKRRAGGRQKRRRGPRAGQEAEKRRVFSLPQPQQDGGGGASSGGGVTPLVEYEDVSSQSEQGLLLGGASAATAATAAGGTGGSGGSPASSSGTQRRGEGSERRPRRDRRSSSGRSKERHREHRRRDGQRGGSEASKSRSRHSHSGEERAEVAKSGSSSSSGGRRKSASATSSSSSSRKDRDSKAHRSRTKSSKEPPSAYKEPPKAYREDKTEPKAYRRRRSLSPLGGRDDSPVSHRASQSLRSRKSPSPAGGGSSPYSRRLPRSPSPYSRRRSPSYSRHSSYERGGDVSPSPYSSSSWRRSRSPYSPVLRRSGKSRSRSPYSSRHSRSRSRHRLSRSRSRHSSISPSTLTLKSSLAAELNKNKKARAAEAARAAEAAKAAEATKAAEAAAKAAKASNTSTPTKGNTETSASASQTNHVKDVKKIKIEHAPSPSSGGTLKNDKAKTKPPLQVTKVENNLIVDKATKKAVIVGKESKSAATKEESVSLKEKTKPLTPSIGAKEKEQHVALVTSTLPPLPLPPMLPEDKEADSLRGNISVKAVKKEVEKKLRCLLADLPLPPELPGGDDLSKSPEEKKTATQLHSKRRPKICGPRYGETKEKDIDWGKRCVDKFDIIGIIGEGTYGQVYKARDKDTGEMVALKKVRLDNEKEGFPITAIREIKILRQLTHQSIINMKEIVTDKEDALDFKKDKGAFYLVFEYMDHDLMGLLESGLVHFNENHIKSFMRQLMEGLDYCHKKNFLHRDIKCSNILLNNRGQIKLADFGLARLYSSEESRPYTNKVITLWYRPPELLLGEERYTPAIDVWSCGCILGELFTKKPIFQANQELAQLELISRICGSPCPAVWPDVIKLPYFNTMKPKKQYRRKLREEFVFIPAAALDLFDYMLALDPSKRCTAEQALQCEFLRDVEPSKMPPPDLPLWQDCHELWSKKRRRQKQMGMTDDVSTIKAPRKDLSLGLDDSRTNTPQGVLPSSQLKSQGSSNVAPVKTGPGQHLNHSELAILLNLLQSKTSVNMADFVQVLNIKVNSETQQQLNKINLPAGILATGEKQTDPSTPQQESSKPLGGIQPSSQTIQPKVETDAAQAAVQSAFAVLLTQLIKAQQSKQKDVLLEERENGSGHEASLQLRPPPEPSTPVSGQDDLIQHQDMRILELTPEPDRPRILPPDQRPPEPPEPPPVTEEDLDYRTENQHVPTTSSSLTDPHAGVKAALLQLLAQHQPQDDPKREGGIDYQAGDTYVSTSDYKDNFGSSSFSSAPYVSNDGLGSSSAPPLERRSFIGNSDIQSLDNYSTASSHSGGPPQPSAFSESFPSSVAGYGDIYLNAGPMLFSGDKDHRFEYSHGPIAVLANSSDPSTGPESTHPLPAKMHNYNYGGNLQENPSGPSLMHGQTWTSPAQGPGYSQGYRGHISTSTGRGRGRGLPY
Chain of CDK13 (O75909 whole entry partner, species assumed): as the sequence (O75909 whole entry partner, species assumed) above

IC50 (CDK13; [4]) | IC50 (CDK12 [1]; [5]) | IC50 [2] | IC50 (CDK12 [3]; [6]) | SMILES | IC50 (CDK13) | IC50 (CDK12 [1]) | IC50 (CDK12 [3]) | IC50 (CDK12 [3]; read-out: CDK12 IC50, kinase reaction 120 minutes, 33P-gamma-ATP)
> 500 nM | > 3000 nM | > 500 nM | > 500 nM | Nc1ncc(-c2cc(NCc3nc4ccc(F)c(F)c4[nH]3)c3ncc(C#CC4CC4)n3n2)cn1 [Example 21, 6-(2-aminopyrimidin-5-yl)-3-(cyclopropylethynyl)-N-((6,7-difluoro-1H-benzo[d]imidazol-2-yl)methyl)imidazo[1,2-b]pyridazin-8-amine] | – | – | – | –
100 to 500 nM | > 3000 nM | > 500 nM | > 500 nM | CC#Cc1cnc2c(NCc3nc4ccc(F)c(F)c4[nH]3)cc(N3CCOCC3)nn12 [Example 24, N-((6,7-difluoro-1H-benzo[d]imidazol-2-yl)methyl)-6-morpholino-3-(prop-1-yn-1-yl)imidazo[1,2-b]pyridazin-8-amine] | – | – | – | –
> 500 nM | > 3000 nM | > 500 nM | > 500 nM | Fc1ccc2nc(CNc3cc(N4CCOCC4)nn4c(C#CC5CC5)cnc34)[nH]c2c1F [Example 25, 3-(cyclopropylethynyl)-N-((6,7-difluoro-1H-benzo[d]imidazol-2-yl)methyl)-6-morpholinoimidazo[1,2-b]pyridazin-8-amine] | – | – | – | –
– | 300 to 3000 nM | 50 to 500 nM | 100 to 500 nM | Fc1ccc2nc(CNc3cc(N4CCN(C5CC5)CC4)nn4c(C(F)(F)F)cnc34)[nH]c2c1F [Example 28, 6-(4-cyclopropylpiperazin-1-yl)-N-((6,7-difluoro-1H-benzo[d]imidazol-2-yl)methyl)-3-(trifluoromethyl)imidazo[1,2-b]pyridazin-8-amine] | 100 to 500 nM | – | – | –
< 100 nM | < 300 nM | ≤ 50 nM | < 100 nM | NC1CN(c2cc(NCc3nc4cc(Cl)c(Cl)cc4[nH]3)c3ncc(C(F)(F)F)n3n2)C1 [Example 36] | – | – | – | –
< 100 nM | < 300 nM | ≤ 50 nM | < 100 nM | N[C@@H]1CCN(c2cc(NCc3nc4ccc(F)c(F)c4[nH]3)c3ncc(C(F)(F)F)n3n2)C1 [Example 37] | – | – | – | –
< 100 nM | < 300 nM | ≤ 50 nM | < 100 nM | N[C@H]1CCN(c2cc(NCc3nc4ccc(F)c(F)c4[nH]3)c3ncc(C(F)(F)F)n3n2)C1 [Example 38] | – | – | – | –
< 100 nM | < 300 nM | ≤ 50 nM | < 100 nM | C[C@@H]1CN(c2cc(NCc3nc4cc(Cl)c(Cl)cc4[nH]3)c3ncc(C(F)(F)F)n3n2)C[C@H](C)N1 [Example 39, N-((5,6-dichloro-1H-benzo[d]imidazol-2-yl)methyl)-6-((3S,5R)-3,5-dimethylpiperazin-1-yl)-3-(trifluoromethyl)imidazo[1,2-b]pyridazin-8-amine] | – | – | – | –
100 to 500 nM | 300 to 3000 nM | 50 to 500 nM | 100 to 500 nM | FC(F)(F)c1cnc2c(NCc3nc4cc(Cl)c(Cl)cc4[nH]3)cc(N3CC4CCC3CO4)nn12 (centres unmarked) [Example 43, 6-(2-oxa-5-azabicyclo[2.2.2]octan-5-yl)-N-((5,6-dichloro-1H-benzo[d]imidazol-2-yl)methyl)-3-(trifluoromethyl)imidazo[1,2-b]pyridazin-8-amine] | – | – | – | –
< 100 nM | < 300 nM | ≤ 50 nM | 100 to 500 nM | FC(F)(F)c1cnc2c(NCc3nc4cc(Cl)c(Cl)cc4[nH]3)cc(N3CC4(CNC4)C3)nn12 [Example 45, N-((5,6-dichloro-1H-benzo[d]imidazol-2-yl)methyl)-6-(2,6-diazaspiro[3.3]heptan-2-yl)-3-(trifluoromethyl)imidazo[1,2-b]pyridazin-8-amine] | – | – | – | –
< 100 nM | < 300 nM | ≤ 50 nM | 100 to 500 nM | OC1CC2(C1)CN(c1cc(NCc3nc4cc(Cl)c(Cl)cc4[nH]3)c3ncc(C(F)(F)F)n3n1)C2 [Example 47, 2-(8-(((5,6-dichloro-1H-benzo[d]imidazol-2-yl)methyl)amino)-3-(trifluoromethyl)imidazo[1,2-b]pyridazin-6-yl)-2-azaspiro[3.3]heptan-6-ol] | – | – | – | –
100 to 500 nM | < 300 nM | 50 to 500 nM | > 500 nM | CC(C)(O)C1CN(c2cc(NCc3nc4cc(Cl)c(Cl)cc4[nH]3)c3ncc(C(F)(F)F)n3n2)C1 [Example 48, 2-(1-(8-(((5,6-dichloro-1H-benzo[d]imidazol-2-yl)methyl)amino)-3-(trifluoromethyl)imidazo[1,2-b]pyridazin-6-yl)azetidin-3-yl)propan-2-ol] | – | – | – | –
< 100 nM | < 300 nM | ≤ 50 nM | < 100 nM | N#CC1CCN(c2cc(NCc3nc4cc(Cl)c(Cl)cc4[nH]3)c3ncc(C(F)(F)F)n3n2)C1 (centres unmarked) [Example 49, 1-(8-(((5,6-dichloro-1H-benzo[d]imidazol-2-yl)methyl)amino)-3-(trifluoromethyl)imidazo[1,2-b]pyridazin-6-yl)pyrrolidine-3-carbonitrile] | – | – | – | –
100 to 500 nM | 300 to 3000 nM | 50 to 500 nM | 100 to 500 nM | OC1(C2CN(c3cc(NCc4nc5cc(Cl)c(Cl)cc5[nH]4)c4ncc(C(F)(F)F)n4n3)C2)CC1 [Example 50, 1-(1-(8-(((5,6-dichloro-1H-benzo[d]imidazol-2-yl)methyl)amino)-3-(trifluoromethyl)imidazo[1,2-b]pyridazin-6-yl)azetidin-3-yl)cyclopropan-1-ol] | – | – | – | –

SMILES | IC50 (CDK13; [4]) | IC50 (CDK12 [1]; [5]) | IC50 [2] | IC50 (CDK12 [3]; [6]) | IC50 (CDK13) | IC50 (CDK12 [1]) | IC50 (CDK12 [3]) | IC50 (CDK12 [3]; read-out: CDK12 IC50, kinase reaction 120 minutes, 33P-gamma-ATP)
Fc1ccc2nc(CNc3cc(N4CCOCC4)nn4c(I)cnc34)[nH]c2c1F [Example 26, N-((6,7-difluoro-1H-benzo[d]imidazol-2-yl)methyl)-3-iodo-6-morpholinoimidazo[1.2-b]pyridazin-8-amine] | – | – | > 500 nM | – | > 500 nM | > 3000 nM | > 500 nM | –
Fc1ccc2nc(CNc3cc(N4CCOCC4)nn4c(Cl)cnc34)[nH]c2c1F [Example 27, 3-chloro-N-((6,7-difluoro-1H-benzo[d]imidazol-2-yl)methyl)-6-morpholinoimidazo[1,2-b]pyridazin-8-amine] | > 500 nM | > 3000 nM | > 500 nM | – | – | – | > 500 nM | –
FC(F)(F)c1cnc2c(NCc3nc4cc(Cl)c(Cl)cc4[nH]3)cc(N3CC4CC(C4)C3)nn12 [Example 31, 6-(3-azabicyclo[3.1.1]heptan-3-yl)-N-((5,6-dichloro-1H-benzo[d]imidazol-2-yl)methyl)-3-(trifluoromethyl)imidazo[1,2-b]pyridazin-8-amine] | 100 to 500 nM | 300 to 3000 nM | > 500 nM | > 500 nM | – | – | – | –
FC(F)(F)c1cnc2c(NCc3nc4cc(Cl)c(Cl)cc4[nH]3)cc(N3CC4CC(C3)O4)nn12 [Example 32] | 100 to 500 nM | < 300 nM | ≤ 50 nM | – | – | – | – | 100 to 500 nM
CN1C2CCC1CN(c1cc(NCc3nc4cc(Cl)c(Cl)cc4[nH]3)c3ncc(C(F)(F)F)n3n1)C2 [Example 33] | < 100 nM | < 300 nM | ≤ 50 nM | < 100 nM | – | – | – | –
CC1(O)CC2CCC(C1)N2c1cc(NCc2nc3cc(Cl)c(Cl)cc3[nH]2)c2ncc(C(F)(F)F)n2n1 (centres unmarked) [Example 34] | 100 to 500 nM | < 300 nM | 50 to 500 nM | – | – | – | > 500 nM | –
